Measured values from patent US20190336537A1, “GENERATING ATRIAL AND VENTRICULAR CARDIOMYOCYTE LINEAGES FROM HUMAN PLURIPOTENT STEM CELLS” (UNIVERSITY HEALTH NETWORK, priority 2016, published 2019).

Columns and labels:
[1] = system: HES3 NKX2-5:GFP reporter hESC line derived cardiomyocytes; assay: qRT-PCR analysis of atrial and ventricular gene expression in day 20 hPSC-derived cardiomyocytes; type: cell-based, human
[2] = system: MSC-iPS1 induced pluripotent stem cell line derived EBs; assay: ROH/RA response of MSC-iPS1-derived EBs (day 20 flow cytometry and qRT-PCR); type: cell-based, human; conditions: treated days 3 to 5
Excerpt: To determine if the approach for optimizing atrial and ventricular differentiation based on ALDH activity and CD235a expression is broadly applicable, we next used it to generate these cardiomyocyte populations from the HES2 human embryonic stem cell and the MSC-iPS1 induced pluripotent stem cell lines. Titration studies identified 5B/2A and 5B/6A as optimal for atrial and ventricular inductions, respectively, for HES2 cells and 4B/4A as optimal for ventricular induction for MSCiPSC1 cells (FIGS. 7A, 7B, 7E, and 7F; Mendeley http://dx.doi.org/10.17632/7z7d5v2c3w.1). Optimization of atrial induction from the MSC-iPSC1 cells was more challenging, as all cytokine combinations promoted the development of a substantial CD235a+ population. One interpretation of these patterns is that the MSC-iPS1 cells have a high level of endogenous Nodal/Activin A signaling, resulting in the development of some CD235a+ cells under all conditions. To test this, we added the Nodal/Activin A/transforming growth factor beta (TGF-beta) inhibitor SB-431542 (SB) from days 3 to 5 to cells induced with 4B/1A.
For cardiac differentiation, we used a modified version of our embryoid body (EB)-based protocol (Kattman et al., 2011). hPSC populations at 80%-90% confluence were dissociated into single cells (TrypLE, ThermoFisher) and re-aggregated to form EBs in StemPro-34 media (ThermoFisher) containing penicillin/streptomycin (1%, ThermoFisher), L-glutamine (2 mM, ThermoFisher), trans-ferrin (150 μg/ml, ROCHE), ascorbic acid (50 μg/ml, Sigma), and monothioglycerol (50 μg/ml, Sigma), ROCK inhibitor Y-27632 (10 μM, TOCRIS) and rhBMP4 (1 ng/ml, R&D) for 18 h on an orbital shaker. At day 1, the EBs were transferred to mesoderm induction media consisting of StemPro-34 with above supplements (-ROCK inhibitor Y-27632) and rhBMP4, rhActivinA (R&D) and rhbFGF (5 ng/ml, R&D) at the indicated concentrations. At day 3, the EBs were harvested, washed with IMDM and transferred to cardiac mesoderm specification media consisting of StemPro-34, the Wnt inhibitor IWP2 (1 μM, TOCRIS) and rhVEGF (10 ng/mL, R&D). At day 5, the EBs were transferred to Stem Pro-34 with rhVEGF (5 ng/ml) for another 7 days and then to Stem Pro-34 media without additional cytokines for further 8 days. At day 20, HES3-NKX2-5gfp/w-derived cardiomyocytes were analyzed and isolated based on the expression of NKX2-5:GFP and SIRPa and a lack of CD90. Cardiomyocytes generated from non-transgenic hPSC lines were analyzed and isolated as SIRPa+CD90− populations. Media was changed every 3 days. Cultures were incubated in a low oxygen environment (5% CO2, 5% O2, 90% N2) for first 12 days and a normoxic environment (5% CO2) for the following 8 days in total of 20 days. […]

CC1=C(/C=C/C(C)=C/C=C/C(C)=C/C(=O)O)C(C)(C)CCC1 [RA, all trans retinoic acid]
expression of KCNJ3, CACNA1D and NR2F2 in VI versus AI cardiomyocytes ([1]; 4 mM RA): Comparable expression levels
expression of ventricular genes MYL2 and IRX4 in the VI population ([1]; RA 1-2 mM): completely suppress
expression of MYL2 and KCNJ3 ([1]; RA added at later stages (days 7 and 12)): no effect
expression level of KCNA5 in cardiomyocytes from VI EBs ([1]; RA increased from 0.5 to 1-2 mM): did increase
expression of KCNJ3, CACNA1D and NR2F2 in VI cardiomyocytes to levels of AI cells ([1]; RA up to 2 mM): failed to increase
response of ALDH+ mesoderm (atrial expression profile) ([2]; MSC-iPS1, 4B/1A+SB induced): responded to both ROH and RA
response of CD235a+ mesoderm (MLC2V content, MYL2, IRX4, KCNJ3, NR2F2) ([2]; MSC-iPS1, 4B/4A induced): both responded to RA
